# Reference: patent publication US20190376046A1, “METHODS FOR MANIPULATING CELL FATE” (The McLean Hospital Corporation, priority 2017, published 2019)
# Tests used:
# [1] = biological target: T1, SIRT1 (Homo sapiens, UniProt Q96EB6); details: cited from earlier work
# T1 sequence (Q96EB6 1-747): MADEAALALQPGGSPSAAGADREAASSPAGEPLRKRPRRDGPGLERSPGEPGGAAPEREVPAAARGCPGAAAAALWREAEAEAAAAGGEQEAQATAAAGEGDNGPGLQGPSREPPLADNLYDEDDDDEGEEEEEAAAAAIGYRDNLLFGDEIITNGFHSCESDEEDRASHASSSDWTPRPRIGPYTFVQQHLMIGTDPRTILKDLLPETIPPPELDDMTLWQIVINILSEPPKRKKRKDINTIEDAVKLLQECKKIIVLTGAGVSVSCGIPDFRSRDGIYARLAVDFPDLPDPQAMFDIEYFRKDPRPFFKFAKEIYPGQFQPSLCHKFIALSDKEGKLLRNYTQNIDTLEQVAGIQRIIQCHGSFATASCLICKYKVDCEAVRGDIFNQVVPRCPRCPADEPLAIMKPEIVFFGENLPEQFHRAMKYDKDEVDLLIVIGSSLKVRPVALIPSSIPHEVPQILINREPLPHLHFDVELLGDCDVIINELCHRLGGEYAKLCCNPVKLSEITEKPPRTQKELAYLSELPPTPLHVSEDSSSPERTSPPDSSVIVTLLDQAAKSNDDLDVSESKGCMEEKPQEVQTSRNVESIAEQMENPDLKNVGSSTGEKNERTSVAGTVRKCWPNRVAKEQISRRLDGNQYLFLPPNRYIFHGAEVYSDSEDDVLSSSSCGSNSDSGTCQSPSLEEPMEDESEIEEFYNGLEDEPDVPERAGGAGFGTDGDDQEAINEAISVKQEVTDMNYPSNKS
# [2] = test system: hPSCs (H9, H7, hiPSC-1, hiPSC-2); assay: Annexin V/7-AAD staining (apoptosis); type: cell-based, human; details: pretreatment; hPSCs with Dox-induced SIRT2 OE
# [3] = test system: human dermal fibroblasts (hDFs); assay: Live cell metabolic analysis (Seahorse XF, OCR/ECAR) in fibroblasts; type: cell-based; details: 0.2 mM; Y4+SIRT2 KD fibroblasts
# Method: Oxygen consumption rate (OCR) and extracellular acidification rates (ECAR) were measured using the XFp8 or XF24 analyzer (Seahorse Bioscience, MA) according to the manufacturer's instruction. Briefly, cells were plated into wells of an XF cell culture microplate and incubated at 37° C. in a CO2 incubator for 24 h to ensure attachment. The assay was started after cells were equilibrated for 1 h in XF assay medium supplemented with 10 mM glucose, 5 mM sodium pyruvate and 2 mM glutamine in a non-CO2 incubator. Mitochondrial activity between hDFs and hESCs/parental hDFs and iPSCs were monitored through sequential injections of 1 μM oligomycin, […] FCCP and 1 μM rotenone/antimycin A to calculate basal respiration rates (baseline OCR—rotenone/antimycin A OCR), ATP dependent (basal respiration rate—oligomycin OCR), maximum respiration (FCCP OCR— rotenone/antimycin A OCR), and oxidative reserve (maximum respiration rate—basal respiration rate). Glycolytic processes were measured by serial injections of 10 mM glucose, 1 μM oligomycin, and 100 mM 2-deoxyglucose to calculate basal glycolytic rate, glycolytic capacity (in response to oligomycin), and glycolytic reserve (glycolytic capacity—basal rate). Each plotted value was normalized to total protein quantified using a Bradford protein assay (Bio-Rad).
# [4] = test system: hDFs; assay: Human iPSC induction, AP-positive colonies; type: cell-based; details: 1 mM or higher concentration; fibroblasts
# Method: Human dermal fibroblasts (hDFs) were cultured in Dulbecco's modified Minimal Essential Medium (DMEM; Invitrogen, Carlsbad, Calif.) supplemented with 2 mM L-glutamine (Invitrogen), 10% fetal bovine serum (FBS; Invitrogen), 100 U/ml penicillin and 100 μg/ml streptomycin (Invitrogen). For iPSC induction, DMEM/F-12 medium supplemented with 2 mM L-glutamine (Invitrogen), 1 mM […] (Invitrogen), 1× non-essential amino acids (NEAA; Invitrogen), 20% knock-out serum replacement (KSR; Invitrogen), 100 U/ml penicillin, 100 μg/ml streptomycin (Invitrogen) and 10 ng/ml basic fibroblast growth factor (bFGF; Invitrogen) was used as the reprogramming medium. Human ESC lines and hiPSC lines were maintained in Essential 8 medium (Invitrogen) using Matrigel® Matrix (Corning Life Sciences, Tewksbury, Mass.) and passaged using 0.5 mM EDTA (Invitrogen) for gentle dissociation.
# Human iPSCs were generated using lentiviral particles by inducible lentiviral vectors or STEMCCA vectors to introduce the OSKM factors (Oct4, Sox2, Klf4, and c-Myc) into fibroblasts^49. ES-like colonies formed after 3 weeks of viral infection and the observed ES-like colonies were handpicked and transferred onto mouse feeder cells (MEF)-plated or Matrigel-coated tissue culture plates to generate iPSC lines. iPSC colonies were mechanically picked until iPSC lines were established.
# [5] = test system: PI3K; details: read-out: IC50 (PI3K inhibitor); cited from earlier work
# [6] = biological target: T2, SIRT3 (Homo sapiens, UniProt Q9NTG7); details: cited from earlier work
# T2 sequence (Q9NTG7 1-399): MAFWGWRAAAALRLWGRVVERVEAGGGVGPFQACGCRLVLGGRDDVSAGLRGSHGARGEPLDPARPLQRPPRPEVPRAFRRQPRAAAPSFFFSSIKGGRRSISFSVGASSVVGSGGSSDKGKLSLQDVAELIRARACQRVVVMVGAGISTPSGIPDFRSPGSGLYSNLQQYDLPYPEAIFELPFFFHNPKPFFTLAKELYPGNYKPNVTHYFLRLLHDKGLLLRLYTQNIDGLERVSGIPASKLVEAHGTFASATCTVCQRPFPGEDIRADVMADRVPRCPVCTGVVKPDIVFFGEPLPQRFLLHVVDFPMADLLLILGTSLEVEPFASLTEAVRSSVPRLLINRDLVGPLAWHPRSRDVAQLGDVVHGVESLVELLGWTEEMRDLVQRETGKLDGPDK
# [7] = biological target: T3, SIRT2 (Homo sapiens, UniProt Q8IXJ6); details: relative to SIRT1; cited from earlier work
# T3 sequence (Q8IXJ6 1-389): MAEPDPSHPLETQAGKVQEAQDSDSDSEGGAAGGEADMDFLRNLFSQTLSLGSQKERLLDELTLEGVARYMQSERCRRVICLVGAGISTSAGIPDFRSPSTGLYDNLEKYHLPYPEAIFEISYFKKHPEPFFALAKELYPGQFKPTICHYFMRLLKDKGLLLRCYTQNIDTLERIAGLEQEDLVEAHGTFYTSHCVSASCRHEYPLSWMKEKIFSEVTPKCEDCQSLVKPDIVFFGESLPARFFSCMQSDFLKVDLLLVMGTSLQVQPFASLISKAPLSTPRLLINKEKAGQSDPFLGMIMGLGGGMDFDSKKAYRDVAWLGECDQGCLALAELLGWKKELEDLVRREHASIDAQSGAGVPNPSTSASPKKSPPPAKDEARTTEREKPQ
# [8] = test system: SIRT2; assay: SIRT2 expression by qRT-PCR and western blot after pre-miRNA transfection; type: cell-based, human; details: fibroblasts transfected with pre-miRNA
# Method: Samples (50 μg) were loaded onto a 12% SDS-PAGE and separated by electrophoresis followed by transfer onto a piece of Immun-Blot PVDF membrane (Bio-Rad, Hercules, Calif.). After transfer, the membrane was blocked at room temperature with Tris-buffered saline (TBS) containing 0.1% Tween-20 and 5% (w/v) skim milk for 3-5 h and then incubated overnight at 4° C. with primary antibody. The membrane was washed three times with TBS containing 0.05% Tween-20 (TBST) and then incubated for 2 h with the appropriate secondary antibody (Pierce, Rockford, Ill.). After washing twice with TBST and once with TBS, bound antibodies were detected by chemiluminescence using the SuperSignal® West Pico kit (Pierce). […]
# Total RNA was extracted from cells by using the Direct-zol RNA purification Kit (Zymo research, Irvine, Calif.) and cDNA was synthesized using the ThermoScript™ RT-PCR system (Invitrogen). For quantitative analysis, qRT-PCR (Bio-Rad) was performed using SsoAdvanced SYBR Green supermix (Bio-Rad) with target genes specific primers. […]
# [9] = test system: CDS fragments of SIRT2 (MREs); assay: Luciferase reporter assay; type: cell-based, human; details: 293T cells, psicheck2 SIRT2 CDS fragments
# Source text: Human SIRT1 or SIRT2 was PCR-amplified from hESCs (H9) or hDFs, respectively, then cloned into the pGEM®-T Easy vector (Promega, Madison, Wis.). The 2A sequence of the Thoseaasigna virus (T2A)-linked EGFP was amplified from pCXLE-EGFP plasmid (#27082; Addgene, Cambridge, Mass.) by […], cloned into the […] vector. The SIRT1 and SIRT2 fragments were then cut off from the corresponding vectors and inserted into the pGEM-T-T2A-EGFP to generate pGEM-T-SIRT1-T2A-EGFP and pGEM-T-SIRT2-T2A-EGFP, respectively. The SIRT1-T2A-EGFP and SIRT2-T2A-EGFP constructs were confirmed by sequencing and then introduced into the EcoRI site of FUW-tetO vector (Addgene), respectively. Human AldoA-Myc constructs, the AldoA fragment was PCR-amplified from hESCs (H9), and then cloned into the pcDNA3.1-Myc/His vector (Invitrogen). For the psicheck2 constructs, the CDS fragments were cloned in downstream of a Renilla luciferase open reading frame. […]
# The Promega dual luciferase assay kit was used to perform the luciferase assay according to the manufacturer's instruction. In brief, cell lysates were analyzed for luciferase activity using the dual luciferase system in which two luciferase enzymes, one (from Renilla reniformis) containing the experimental target sequence and another (from firefly) containing the control. […]
molecule,measurement,setting,value
N#C/C(=C\c1ccc(-c2cc(Cl)ccc2Cl)o1)C(=O)Nc1cccc2ncccc12 [AGK2],effect on SIRT1,[1]; at 10-fold higher levels than SIRT2 IC50,minimally affects
CC(=O)N[C@@H](CS)C(=O)O [N-acetyl-L-Cysteine],SIRT2-induced cell death,[2],rescued
"O=CC[C@@H](O)[C@H](O)[C@H](O)CO [2DG, 2-deoxy-glucose]",glycolytic flux,[3],decreased the glycolytic flux in Y4+SIRT2 KD to the level of Y4 only without 2DG
same,generation of iPSC-like colonies,[4],completely blocked
O=c1c(O)c(-c2ccc(O)c(O)c2)oc2cc(O)cc(O)c12 [Quercetin],IC50,[5],2.4 to 5.4 µM
CCCCCCCCCCCCCC(=S)NCCCC[C@H](NC(=O)OCc1ccccc1)C(=O)Nc1ccccc1 [Thiomyristoyl],inhibition of SIRT3,[6]; at 200 μM,does not inhibit SIRT3 even at 200 μM
O=C(Nc1ccccc1-c1cn2c(CN3CCNCC3)csc2n1)c1cnc2ccccc2n1 [SRT1720],EC50,"[1]; cell-free assay, read-out: EC50 (SIRT1 activator)",0.16 µM
same,fold less potent for SIRT3,[6]; relative to SIRT1,> 230 fold
same,fold less potent for SIRT2,[7],> 230 fold
CN(C)CCCCC(=O)Nc1ccc(NC(=S)NC(=O)c2ccc(C(C)(C)C)cc2)cc1 [Tenovin-6],IC50,"[6]; purified human SIRT3 in vitro, read-out: IC50 protein deacetylase activity of SIRT3",67 µM
"pre-miR-200c-5p: precursor miRNA oligomer of miR-200c-5p, CGUCUUACCCAGCAGUGUUUGG (SEQ ID NO: 1) (further chemistry not given here; listed as Homo sapiens)",SIRT2 expression (mRNA and protein),[8],significantly decreased
same,reporter expression of both MREs,[9],significantly decreased
